One experiment has as its system VSV-G glycoprotein. It is filed as cell-based, vesicular stomatitis Indiana virus (VSV).
Another experiment has as its system VSV-G. The experiment is classed as cell-based, vesicular stomatitis Indiana virus (VSV).

Consider `CN(N=Cc1ccc(O)c(O)c1)c1nc(-c2ccccc2)cc(-c2ccccc2)n1` [MK-28, 4-((2-(4,6-diphenylpyrimidin-2-yl)-2-methylhydrazineylidene)methyl) benzene-1,2-diol], for which the “Endo H-resistance of VSV-G relative to untreated control cells” value with VSV-G glycoprotein is “about half the resistance of untreated control cells”. Moreover, the “Endo H-resistance of VSV-G” value in the experiment on VSV-G was “decreased considerably”.

Source of the values: patent US20250205230A1 (priority 2022, published 2025).
